The nature of this series: physchem.

Where a name gives a salt, the structure may show the parent alone.

`CCC[CH2][Sn]([CH2]CCC)([CH2]CCC)[c]1c(-c2ccncc2)cnn1C1CCCCO1` (centres unmarked) [4-[1-(tetrahydro-2H-pyran-2-yl)-5-(tributylstannyl)-1H-pyrazol-4-yl]pyridine] came in with a log p (pH 2.7) of 4.89.
Same read-out and setting: under `Clc1ccc(-c2nn(C3CC3)cc2-c2ccncc2)s1` [4-[1-Cyclopropyl-3-(5-chloro-2-thienyl)-1H-pyrazol-4-yl]pyridine] stands 1.62; under `CCn1cc(-c2ccncc2)c(-c2cccs2)n1` [4-[1-Ethyl-3-(2-thienyl)-1H-pyrazol-4-yl]pyridine], 0.75; under `CC(C)Cn1cc(-c2ccncc2)c(-c2ccc(C#N)s2)n1` [4-[1-Isobutyl-3-(5-cyano-2-thienyl)-1H-pyrazol-4-yl]pyridine], 1.74.
Same read-out and setting: under `CC(C)n1cc(-c2ccncc2)c(-c2ccc(Cl)s2)n1` [4-[1-Isopropyl-3-(5-chloro-2-thienyl)-1H-pyrazol-4-yl]pyridine] stands 1.82.
The same measure, in the same setting: under `CC(C)n1cc(-c2ccncc2)c(-c2ccc(F)s2)n1` [4-[1-Isopropyl-3-(5-fluoro-2-thienyl)-1H-pyrazol-4-yl]pyridine] stands 1.53; under `CSc1ccc(-c2nn(C(C)C)cc2-c2ccncc2)s1` [4-[1-Isopropyl-3-(5-methylsulfanyl-2-thienyl)-1H-pyrazol-4-yl]pyridine], 1.79.
Where the note is “pH 2.7”, `CC(C)n1ncc(-c2ccncc2)c1-c1ccc(Cl)s1` [4-[1-Isopropyl-5-(5-chloro-2-thienyl)-1H-pyrazol-4-yl]pyridine] yielded a log p of 1.7.
Same read-out and setting: under `CC(C)n1ncc(-c2ccncc2)c1-c1ccc(F)s1` [4-[1-Isopropyl-5-(5-fluoro-2-thienyl)-1H-pyrazol-4-yl]pyridine] stands 1.51; under `CSc1ccc(-c2c(-c3ccncc3)cnn2C(C)C)s1` [4-[1-Isopropyl-5-(5-methylsulfanyl-2-thienyl)-1H-pyrazol-4-yl]pyridine], 1.78.
Where the note is “pH 2.7”, `CC(C)Cn1cc(-c2ccncc2)c(-c2ccc(Br)s2)n1` [4-[1-isobutyl-3-(5-bromo-2-thienyl)-1H-pyrazol-4-yl]pyridine] returned a log p of 2.04.
The same measure, in the same setting: under `CCC(C)n1cc(-c2ccncc2)c(-c2cc(Cl)cs2)n1` (centres unmarked) [4-[1-sec-Butyl-3-(4-chloro-2-thienyl)-1H-pyrazol-4-yl]pyridine] stands 1.83.
Still for that read-out and setting: under `CCC(C)n1cc(-c2ccnc(C#CC3CC3)c2)c(-c2ccc(Cl)s2)n1` (centres unmarked) [4-[1-sec-Butyl-3-(5-chloro-2-thienyl)-1H-pyrazol-4-yl]-2-(cyclopropylethynyl)pyridine] stands 4.56; under `CCC(C)n1cc(-c2ccnc(C(=O)NC(C)C)c2)c(-c2ccc(Cl)s2)n1` (centres unmarked) [4-[1-sec-Butyl-3-(5-chloro-2-thienyl)-1H-pyrazol-4-yl]-N-isopropylpyridine-2-carboxamide], 4.82; under `CCC(C)n1cc(-c2ccncc2)c(-c2ccc(Cl)s2)n1` (centres unmarked) [4-[1-sec-Butyl-3-(5-chloro-2-thienyl)-1H-pyrazol-4-yl]pyridine], 2.1.
For the molecule `CCC(C)n1ncc(-c2ccncc2)c1-c1ccc(Cl)s1` (centres unmarked) [4-[1-sec-Butyl-5-(5-chloro-2-thienyl)-1H-pyrazol-4-yl]pyridine], the log p (pH 2.7) came out at 1.94.
Still for that read-out and setting: under `CCC(C)n1cc(-c2ccncc2)c(-c2ccc(F)s2)n1` (centres unmarked) [4-[1-sec-butyl-3-(5-fluoro-2-thienyl)-1H-pyrazol-4-yl]pyridine] stands 1.78.
Still for that read-out and setting: under `CCC(C)n1ncc(-c2ccncc2)c1-c1ccc(F)s1` (centres unmarked) [4-[1-sec-butyl-5-(5-fluoro-2-thienyl)-1H-pyrazol-4-yl]pyridine] stands 1.84; under `Brc1ccc(-c2n[nH]cc2-c2ccncc2)s1` [4-[3-(5-Bromo-2-thienyl)-1H-pyrazol-4-yl]pyridine], 0.94; under `CSc1nccc(-c2cn(C(C)C)nc2-c2ccc(Cl)s2)n1` [4-[3-(5-Chloro-2-thienyl)-1-isopropyl-1H-pyrazol-4-yl]-2-(methylsulfanyl)pyrimidine], 4.44.
Still for that read-out and setting: under `CC(C)n1cc(-c2ccnc(S(C)(=O)=O)n2)c(-c2ccc(Cl)s2)n1` [4-[3-(5-Chloro-2-thienyl)-1-isopropyl-1H-pyrazol-4-yl]-2-(methylsulfonyl)pyrimidine] stands 3.15; under `CC(C)Nc1nccc(-c2c[nH]nc2-c2ccc(Cl)s2)n1` [4-[3-(5-Chloro-2-thienyl)-1H-pyrazol-4-yl]-2-(isopropylamino)pyrimidine], 1.79.
On to `CSc1nccc(-c2c[nH]nc2-c2ccc(Cl)s2)n1` [4-[3-(5-Chloro-2-thienyl)-1H-pyrazol-4-yl]-2-(methylsulfanyl)pyrimidine], for which the log p (pH 2.7) was 2.78.
On the same count and under the same terms, under `CC#Cc1[nH]nc(-c2ccc(Cl)s2)c1-c1ccncc1` [4-[3-(5-Chloro-2-thienyl)-5-(prop-1-yn-1-yl)-1H-pyrazol-4-yl]pyridine] stands 1.44; under `Clc1ccc(-c2n[nH]c(C3CC3)c2-c2ccncc2)s1` [4-[3-(5-Chloro-2-thienyl)-5-cyclopropyl-1H-pyrazol-4-yl]pyridine], 1.29.
On the same count and under the same terms, under `CCC(C)n1nc(-c2ccc(Cl)s2)c(-c2ccncc2)c1F` (centres unmarked) [4-[3-(5-Chloro-2-thienyl)-5-fluoro-1-secbutyl-1H-pyrazol-4-yl]pyridine] stands 2.61; under `CCC(C)n1nc(-c2ccc(Cl)s2)c(-c2ccncc2)c1SC` (centres unmarked) [4-[3-(5-Chloro-2-thienyl)-5-methylsulfanyl-1-secbutyl-1H-pyrazol-4-yl]pyridine], 3.35; under `Fc1ccc(-c2n[nH]cc2-c2ccncc2)s1` [4-[3-(5-Fluoro-2-thienyl)-1H-pyrazol-4-yl]pyridine], 0.57.
Take `CC(C)Cn1cc(-c2ccnc3ccccc23)c(-c2ccc(Cl)s2)n1` [4-[3-(5-chloro-2-thienyl)-1-isobutyl-1H-pyrazol-4-yl]quinoline]: under “pH 2.7”, the log p is 3.69.
Still for that read-out and setting: under `Clc1ccc(-c2n[nH]cc2-c2ccncc2)s1` [4-[3-(5-chloro-2-thienyl)-1H-pyrazol-4-yl]pyridine] stands 0.9; under `FC(F)(F)c1ccc(-c2n[nH]cc2-c2ccncc2)s1` [4-[3-(5-trifluoromethyl-2-thienyl)-1H-pyrazol-4-yl]pyridine hydrochloride], 1.34; under `CC(C)n1nc(C2CC2)c(-c2ccncc2)c1-c1ccc(Cl)s1` [4-[3-Cyclopropyl-1-isopropyl-5-(5-chloro-2-thienyl)-1H-pyrazol-4-yl]pyridine], 2.44.
On the same count and under the same terms, under `Cc1n[nH]c(-c2ccc(Cl)s2)c1-c1ccncc1` [4-[5-(5-Chloro-2-thienyl)-3-methyl-1H-pyrazol-4-yl]pyridine] stands 1.07; under `Clc1ccc(-c2n[nH]c(Br)c2-c2ccncc2)s1` [4-[5-Bromo-3-(5-chloro-2-thienyl)-1H-pyrazol-4-yl]pyridine], 1.4.
Still for that read-out and setting: under `CCC(C)n1nc(-c2ccc(Cl)s2)c(-c2ccncc2)c1Cl` (centres unmarked) [4-[5-Chloro-1-secbutyl-3-(5-chloro-2-thienyl)-1H-pyrazol-4-yl]pyridine] stands 3.44; under `CC(C)n1nc(-c2ccc(Cl)s2)c(-c2ccncc2)c1C1CC1` [4-[5-Cyclopropyl-1-isopropyl-3-(5-chloro-2-thienyl)-1H-pyrazol-4-yl]pyridine], 2.44; under `CC(C)n1nccc1-c1cc(Br)c(Br)s1` [5-(4,5-Dibromo-2-thienyl)-1-isopropyl-1H-pyrazole], 4.44.
In turn, `CCn1nccc1-c1cc(Br)cs1` [5-(4-Bromo-2-thienyl)-1-ethyl-1H-pyrazole] registered a log p (pH 2.7) of 2.92.
Still for that read-out and setting: under `CC(C)n1nccc1-c1cc(Br)cs1` [5-(4-Bromo-2-thienyl)-1-isopropyl-1H-pyrazole] stands 3.44.
Still for that read-out and setting: under `CCn1ncc(I)c1-c1cc(Cl)cs1` [5-(4-Chloro-2-thienyl)-1-ethyl-4-iodo-1H-pyrazole] stands 3.76; under `CCCn1nccc1-c1cc(C)cs1` [5-(4-Methyl-2-thienyl)-1-propyl-1H-pyrazole], 3.1; under `CC(C)Cn1cc(-c2cc(N)ncn2)c(-c2ccc(Cl)s2)n1` [6-[3-(5-chloro-2-thienyl)-1-isobutyl-1H-pyrazol-4-yl]pyrimidin-4-amine], 1.97.
In turn, `CCn1cc(-c2ccncc2)c(-c2cccs2)n1` [Example 148, 4-[1-Ethyl-3-(2-thienyl)-1H-pyrazol-4-yl]pyridine] showed a chromatographic logP (pH 2.7) of 0.75 and a chromatographic logP (pH 7.8) of 2.06.
On the same counts, the results for `CCC(=O)Nc1cc(-c2cn(CC)nc2-c2cccs2)ccn1` [Example 149, N-{4-[1-Ethyl-3-(2-thienyl)-1H-pyrazol-4-yl]pyridin-2-yl}propanamide] are 1.65 and 2.26.
Consider `CC(=O)N(C(C)=O)c1cc(-c2cn(C(C)C)nc2-c2ccc(Cl)s2)ccn1` [N-Acetyl-N-{4-[3-(5-chloro-2-thienyl)-1-isopropyl-1H-pyrazol-4-yl]pyridin-2-yl}acetamide], for which the log p (pH 2.7) is 3.33.
Still for that read-out and setting: under `CC(=O)N(C(C)=O)c1nccc(-c2cn(C(C)C)nc2-c2ccc(Cl)s2)n1` [N-Acetyl-N-{4-[3-(5-chloro-2-thienyl)-1-isopropyl-1H-pyrazol-4-yl]pyrimidin-2-yl}acetamide] stands 3.33; under `CC(C)n1cc(-c2ccnc(NCc3ccccc3)n2)c(-c2ccc(Cl)s2)n1` [N-Benzyl-4-[3-(5-chloro-2-thienyl)-1-isopropyl-1H-pyrazol-4-yl]pyrimidin-2-amine], 3.81; under `CC(C)Nc1nccc(-c2cn(C(C)C)nc2-c2ccc(Cl)s2)n1` [N-Isopropyl-4-[3-(5-chloro-2-thienyl)-1-isopropyl-1H-pyrazol-4-yl]pyrimidin-2-amine], 2.82.
Same read-out and setting: under `CCC(=O)Nc1cc(-c2cn(CC)nc2-c2cccs2)ccn1` [N-{4-[1-Ethyl-3-(2-thienyl)-1H-pyrazol-4-yl]pyridin-2-yl}propanamide] stands 1.65; under `CCC(C)n1cc(-c2ccnc(NC(C)=O)c2)c(-c2ccc(Cl)s2)n1` (centres unmarked) [N-{4-[1-sec-butyl-3-(5-chloro-2-thienyl)-1H-pyrazol-4-yl]pyridin-2-yl}acetamide], 2.94; under `CC(=O)Nc1nccc(-c2cn(C(C)C)nc2-c2ccc(Cl)s2)n1` [N-{4-[3-(5-Chloro-2-thienyl)-1-isopropyl-1H-pyrazol-4-yl]pyrimidin-2-yl}acetamide], 2.59.

As usually defined, the chromatographic logP is lipophilicity estimated from chromatographic retention. A high value points to higher lipophilicity.

Values taken from patent US8685974B2 (Bayer CropScience AG, priority 2009, dated 2014).
